Test: Solubility of cis-FTC Ester in various solvent systems
Format: physicochemical
Settings: 100% ethyl acetate, 20° C.
Protocol: Therefore, the solubility of the FTC ester in several solvent systems was determined.

Structure (SMILES): CCCC(=O)OC[C@@H]1O[C@H](n2cc(F)c(N)nc2=O)CS1 (relative stereo) [cis-FTC Ester, cis-{5-(4-amino-5-fluoro-2-oxo-1(2H)-pyrimidinyl)-1,3-oxathiolan-2-yl}methyl butanoate]
- Solubility: 3.03%??

From patent US6752929B1, “Methods of separating FTC isomers and derivatives thereof” (Johnson Matthey Pharmaceutical Materials, Inc., priority 1999, dated 2004)
